Results as given in patent US20260250412A1, “COMBINATION OF ANTIBODY-DRUG CONJUGATE AND ANTI-PD-1 ANTIBODY, AND USE THEREOF” (GENEQUANTUM HEALTHCARE (SUZHOU) CO., LTD., priority 2023, published 2026).
Values joined by “and” are separate entries in the source; they are usually repeats but may differ in a detail not shown here. Equal entries are not always repeated.

How the values were obtained:
[1] = test system: FaDu mouse xenograft tumor; experiment: In vivo efficacy, FaDu mouse xenograft tumor; set-up: species or system BALB/c nude mice; details: for Tumor volume (mm^3) Day 0: baseline at grouping
Procedure: (§1) I. The logarithmic growth phase BxPC-3 were collected and the cell density was adjusted to 10×10^6 cells/mL with Matrigel buffer (PBS:Matrigel=1:1). 0.2 mL of the prepared BxPC-3 cell suspension was subcutaneously injected into the right scapula of SPF female BALB/c nude mice aged 6-8 weeks.
(§2) II. The tumor diameter was measured with a vernier caliper and the tumor volume was calculated according to the formula V=0.5a×b^2 (where a is the longest diameter of the tumor and b is the shortest diameter of the tumor). […] Animals in each group were administered by tail vein injection, and the control group was given an equal volume of vehicle. The tumor volume of animals in each group was measured twice a week within 35 days after administration, and the tumor volume of animals on day 35 was compared between groups. T/C and TGI values were calculated using tumor volume. The calculation formula is as follows: T/C %=TRTV/CRTV×100% (TRTV: RTV of the treatment group; CRTV: RTV of the vehicle control group). The relative tumor volume (RTV) was calculated based on the results of tumor measurement, and the calculation formula was RTV=Vt/V0, where V0 was the average tumor volume measured at the time of grouping (i.e., D0), Vt was the average tumor volume at one measurement, and TRTV and CRTV took the same day of data.
The BxPC-3 pancreatic cancer cells in Example 3.3.1 were replaced with human pharyngeal squamous cells carcinoma FaDu, and 10 days after cell inoculation, when the average tumor volume was about 119 mm^3, animals were randomly divided into vehicle control group, […], with 6 animals in each group.

[2] = test system: MDA-MB-468 mouse xenograft tumor; experiment: In vivo efficacy, MDA-MB-468 mouse xenograft tumor; set-up: species or system BALB/c Nude mice; details: 4.5 mg/kg, intravenously
Procedure: The MDA-MB-468 tumor cells (ATCC, HTB-132) were maintained in vitro as a monolayer culture in L-15 medium supplemented with 10% fetal bovine serum and 1% Antibiotic-Antimycotic at 37° C. in an atmosphere of 0% CO2 in air. The cells growing in an exponential growth phase will be harvested and counted for tumor inoculation. For in vivo anti-tumor efficacy study, 10×10^6 MDA-MB-468 human breast cancer cells (Trop2 positive) in 0.2 mL of PBS with Matrigel (1:1) were inoculated subcutaneously in the right flank in BALB/c Nude mice. […] The tumor volume was measured twice weekly with a caliper. T/C and TGI values were calculated using tumor volume.

[3] = test system: human breast cancer cells MDA-MB-468; experiment: Cell proliferation, CellTiter Glo, 96 h, MDA-MB-468; type: cell-based; details: MDA-MB-468, 96 h
[4] = test system: Trop2 positive cancer cells BxPC-3; experiment: Cytotoxicity assay, CellTiter-Glo, 168 h, BxPC-3; type: cell-based, human
Procedure: In brief, 3000 to 5000 cells were plated in 96-well plates, and cells were able to attach overnight. Cells were treated with indicated drugs with various concentrations for 168 h. Cell viabilities were examined by CellTiter-Glo® Luminescent Cell Viability Assay, and percentage of cell viability was calculated.

[5] = test system: BxPC-3 mouse xenograft tumor; experiment: In vivo efficacy, BxPC-3 mouse xenograft tumor; set-up: species or system BALB/c nude mice; details: for T/C (%) / TGI (%) / Tumor volume (mm^3) Day 0 / tumor growth inhibition (in words): 3 mg/kg; for Tumor volume (mm^3) Day 0: baseline at grouping
Procedure: as §1
as §2, with “The tumor volume of animals in each group was measured twice a week within 35 days after administration, and the tumor volume of animals on day 35 was compared between groups.” left out
6 days after cell inoculation, when the average tumor volume was about 159 mm^3, animals were randomly divided into vehicle control group, ADC-5 3 mg/kg group, ADC-6 3 mg/kg group, and DS1062a 3 mg/kg group, with 6 animals in each group.

[6] = test system: human gastric cancer cells NCI-N87; experiment: Cell proliferation, CellTiter Glo, 96 h, NCI-N87; type: cell-based; details: NCI-N87, 96 h
Procedure: Two thousand human pharyngeal squamous cells carcinoma FaDu with high TROP2 expression were seeded into 96-well plates in 100 μL of culture medium per well, and incubated overnight in a cell incubator at 37° C. and 5% CO2. […] A positive control group was set: 100 μL Puromycin at a concentration of 10 μg/mL was added to each well. A negative control group was set: 100 μL of complete medium of FaDu cells was added to each well. After the administration was completed, the cells were moved to the incubator and incubated for 96 h. The 96-well plate was removed from the 37° C. cell incubator and equilibrated to room temperature for 30 minutes. After the medium was discarded, 100 μL of DMEM and 50 μL of CellTiter Glo reagent were added to each well, and the cells were shaken in the dark at 200 rpm for 15 minutes, and the luminescent signal reflecting cell viability was detected by a microplate reader. The inhibitory effects of the tested drugs on the proliferation of human pharyngeal squamous cell carcinoma FaDu are as shown in FIG. 2 and Table 7.
The human pharyngeal squamous cells carcinoma FaDu in Example 2.1.1 were replaced with human gastric cancer cells NCI-N87 (100 μL per well containing 5000 cells), and the inhibitory effect of ADC-7 was evaluated using the same process.

With DS1062a the “Tumor volume (mm^3) Day 28” value ([1]; Table 18, 3 mg/kg) was 28 mm^3 and 28 ± 14 mm^3, the “T/C (%)” value ([1]; Table 18, 3 mg/kg, Day 28) was 1.68% and the “TGI (%)” value ([1]; Table 18, 3 mg/kg, Day 28) was 106.11%. For the same substance, the “Tumor volume (mm^3) Day 0” value ([1]; Table 18, 3 mg/kg) was 123 ± 13 mm^3, the “Tumor volume (mm^3) Day 31” value ([1]; Table 21, 2 mg/kg) was 296 mm^3 and 296 ± 125 mm^3 and the “T/C (%)” value ([1]; Table 21, 2 mg/kg, Day 31) was 15.47%. For the same substance, the “TGI (%)” value ([1]; Table 21, 2 mg/kg, Day 31) was 90.15%, the “Tumor volume (mm^3) Day 0” value ([1]; Table 21, 2 mg/kg) was 119 ± 11 mm^3 and the “tumor growth inhibition (in words)” value ([1]; effect example 3.2.3, 3 mg/kg, after 28 days) was “could significantly inhibit FaDu tumor growth”. For the same substance, the “tumor growth inhibition (in words)” value ([1]; effect example 3.3.3, 2 mg/kg, after 31 days) was “could significantly inhibit tumor growth”, the “Tumor volume (mm^3) on day 35” value [2] was 9 ± 9 mm^3 and the “T/C (%)” value ([2]; day 35) was 1.35%. For the same substance, the “TGI (%)” value ([2]; day 35) was 136.06%, the “inhibition of proliferation (in words)” value [3] was “could inhibit the proliferation of MDA-MB-468 cells” and the IC50 ([3]; Table 9) was 2.5 nM. For the same substance, the IC50 [4] was 0.692 nM, the “Tumor volume (mm^3) Day 35” value ([5]; Table 13, 3 mg/kg, tail vein injection) was 847 mm^3 and 847 ± 104 mm^3 and the “T/C (%)” value ([5]; Table 13, Day 35) was 64.05%. The “TGI (%)” value ([5]; Table 13, Day 35) was 40.54%, the “Tumor volume (mm^3) Day 0” value ([5]; Table 13, tail vein injection) was 151 ± 12 mm^3 and the “Tumor volume (mm^3) Day 28” value ([5]; Table 16, 3 mg/kg) was 540 mm^3 and 540 ± 74 mm^3. The “T/C (%)” value ([5]; Table 16, Day 28) was 58.49%, the “TGI (%)” value ([5]; Table 16, Day 28) was 48.52% and the “Tumor volume (mm^3) Day 0” value ([5]; Table 16) was 151 ± 12 mm^3. The “Tumor volume (mm^3) Day 42” value ([5]; Table 19, 3 mg/kg) was 302 mm^3 and 302 ± 73 mm^3, the “T/C (%)” value ([5]; Table 19, Day 42) was 27.69% and the “TGI (%)” value ([5]; Table 19, Day 42) was 84.60%. For the same substance, the “Tumor volume (mm^3) Day 0” value ([5]; Table 19) was 159 ± 11 mm^3, the “tumor growth inhibition (in words)” value ([5]; effect example 3.1.1, compared with the control group) was “could significantly inhibit tumor growth” and the “tumor growth inhibition (in words)” value ([5]; effect example 3.3.1, after 42 days) was “could significantly inhibit tumor growth”. For the same substance, the “inhibition of proliferation (in words)” value [6] was “could inhibit the proliferation of NCI-N87 cells” and the IC50 ([6]; Table 10) was 1.26 nM.
